Patent US8835420B2, “Azaindole derivatives” (Takeda Pharmaceutical Company Limited, priority 2012, dated 2014)

Target: T1, PI3Kδ (recombinant GST-tagged PIK3CD co-expressed with PIK3R1, p85α) (Homo sapiens, UniProt O00329)
T1 construct: The protein is full length and co-expressed with untagged PIK3R1; GST; purchased Invitrogen PV5274
Test: PI3Kδ inhibition, modified PIK3CD Adapta TR-FRET kinase assay
Format: biochemical
Conditions: 2 μM ATP, 50 μM PIP2, 1 hour at room temperature, pIC50 = -log(IC50 in M)
Protocol: The activity of compounds as PI3Kδ inhibitors may be determined by a variety of methods, including in vitro and in vivo methods. The following in vitro assay measures a test compound's ability to inhibit PI3Kδ-mediated phosphorylation of PIP2 and ATP.
Recombinant GST-tagged PIK3CD is purchased from Invitrogen (Part Number: PV5274). The protein is full length and co-expressed with untagged PIK3R1, phosphoinositide-3-kinase regulatory subunit 1 (p85α). The protein is stored at −20° C. in 50 mM TRIS (pH 7.5), 150 mM NaCl, 0.5 mM EDTA, 0.02% Triton® X-100, 2 mM DTT, and 50% glycerol.
A modified PIK3CD Adapta® assay (Invitrogen, Carlsbad, Calif.) is used to measure PI3Kδ inhibition of the example compounds. The assay has two phases. In the first phase, kinase reaction components, which include the enzyme (PIK3CD), substrates (PIP2, ATP), test compound (inhibitor), and assay buffer are added to each well, and the reaction is allowed to incubate for a pre-determined period of time. After reaction, a detection solution composed of a Eu (europium)-labeled anti-ADP antibody, Alexa Fluor® 647-labeled ADP tracer, and EDTA (to stop the kinase reaction) is added to each assay well. In this second phase, ADP formed by the kinase reaction displaces the Alexa Fluor® 647-labeled ADP tracer from the antibody, resulting in a decrease in time-resolved fluorescence resonance energy transfer (TR-FRET) signal. In the presence of the inhibitor, the amount of ADP formed by the kinase reaction is reduced, and the resulting intact antibody-tracer interaction maintains a high TR-FRET signal.
The assay uses black Greiner® 384-well plates (784076). The reaction buffer contains 50 mM Hepes (pH 7.5), 3 mM MgCl2, 1 mM EGTA, 100 mM NaCl, 0.03% CHAPS; 2 mM DTT is added fresh prior to each experiment. Enzyme (4 μL, estimated 1.5 nM in buffer) is first added to the wells of the plate. Next, test compounds (2 μL) from a source plate (5% dilution plate) are introduced into the wells. The final DMSO concentration in each assay well is 1%. The dilution plate contains 5% DMSO in the bottom half of columns 23 and 24, which serve as negative (non-inhibited) controls; the top half contains a known inhibitor concentration (positive control) that gives >98% inhibition of the kinase reaction. Other wells contain test compounds serially diluted across the plate 11 times for a total of 12 data points. The kinase reactions are carried out at room temperature and are initiated by the addition of 4 μL of solution containing 2 μM ATP and 50 μM PIP2. Each reaction is stopped after 1 hour±10 minutes via addition of 10 μL stop solution, which contains a final assay concentration of 3 nM Alexa Fluor® 647-labeled ADP tracer, 2 nM Eu-anti-ADP Antibody, and 10 mM EDTA. After allowing the solutions to equilibrate for 30±10 minutes, a PHERAstar plate reader is used to excite the Eu donor (at 337 nm) and to detect emission from the Alexa Fluor® 647 at 665 nm. This emission signal is referenced or “ratioed” to the emission from Eu at 620 nm. The emission ratio (665 nm/620 nm) from each well is collected and converted to percent conversion using a standard curve for the assay conditions: % conversion=B*(C+A−emission ratio)/(emission ratio−C), where “A” and “C” are the maximum and minimum values of the emission ratio obtained from the standard curve of emission ratio vs. % conversion (ATP-ADP); “B” is the emission ratio corresponding to the % conversion at the EC50 value for the ADP Tracer—Eu anti-ADP antibody complex. The percent inhibition for a given inhibitor concentration is computed from % conversion for the reaction and for the positive and negative controls. Corresponding IC50 values are calculated by non-linear curve fitting of the compound concentrations and values of percent inhibition to the standard IC50 equation and are reported as pIC50, i.e., −log(IC50), where IC50 is molar concentration at 50% inhibition.

T1 sequence (O00329 whole entry): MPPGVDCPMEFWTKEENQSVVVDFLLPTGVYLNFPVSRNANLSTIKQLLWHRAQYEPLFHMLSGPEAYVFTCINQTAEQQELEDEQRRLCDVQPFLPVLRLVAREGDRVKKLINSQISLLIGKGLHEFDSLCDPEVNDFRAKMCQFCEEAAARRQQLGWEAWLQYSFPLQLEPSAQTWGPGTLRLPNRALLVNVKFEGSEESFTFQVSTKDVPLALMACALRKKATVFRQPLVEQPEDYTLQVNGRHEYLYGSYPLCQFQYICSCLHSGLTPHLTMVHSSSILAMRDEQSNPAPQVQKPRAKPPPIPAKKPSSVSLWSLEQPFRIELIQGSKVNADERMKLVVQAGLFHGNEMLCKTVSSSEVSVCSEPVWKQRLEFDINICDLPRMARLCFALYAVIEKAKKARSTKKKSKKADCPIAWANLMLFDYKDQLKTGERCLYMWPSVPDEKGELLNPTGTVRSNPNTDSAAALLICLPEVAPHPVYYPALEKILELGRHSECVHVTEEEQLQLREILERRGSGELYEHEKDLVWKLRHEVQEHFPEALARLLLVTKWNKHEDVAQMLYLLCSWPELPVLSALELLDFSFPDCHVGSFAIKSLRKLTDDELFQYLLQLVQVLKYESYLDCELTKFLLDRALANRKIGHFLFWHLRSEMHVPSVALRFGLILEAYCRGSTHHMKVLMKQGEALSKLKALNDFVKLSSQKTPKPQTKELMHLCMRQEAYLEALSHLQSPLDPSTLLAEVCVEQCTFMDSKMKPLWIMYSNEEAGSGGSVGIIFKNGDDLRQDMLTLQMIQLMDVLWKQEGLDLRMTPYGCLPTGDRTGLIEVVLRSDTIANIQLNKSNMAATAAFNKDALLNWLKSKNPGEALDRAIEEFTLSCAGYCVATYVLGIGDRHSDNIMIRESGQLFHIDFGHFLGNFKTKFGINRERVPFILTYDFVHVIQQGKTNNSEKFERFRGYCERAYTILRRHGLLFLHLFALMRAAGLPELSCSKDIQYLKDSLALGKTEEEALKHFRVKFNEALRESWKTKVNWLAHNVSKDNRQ
T1 sequence (P27986 whole entry partner): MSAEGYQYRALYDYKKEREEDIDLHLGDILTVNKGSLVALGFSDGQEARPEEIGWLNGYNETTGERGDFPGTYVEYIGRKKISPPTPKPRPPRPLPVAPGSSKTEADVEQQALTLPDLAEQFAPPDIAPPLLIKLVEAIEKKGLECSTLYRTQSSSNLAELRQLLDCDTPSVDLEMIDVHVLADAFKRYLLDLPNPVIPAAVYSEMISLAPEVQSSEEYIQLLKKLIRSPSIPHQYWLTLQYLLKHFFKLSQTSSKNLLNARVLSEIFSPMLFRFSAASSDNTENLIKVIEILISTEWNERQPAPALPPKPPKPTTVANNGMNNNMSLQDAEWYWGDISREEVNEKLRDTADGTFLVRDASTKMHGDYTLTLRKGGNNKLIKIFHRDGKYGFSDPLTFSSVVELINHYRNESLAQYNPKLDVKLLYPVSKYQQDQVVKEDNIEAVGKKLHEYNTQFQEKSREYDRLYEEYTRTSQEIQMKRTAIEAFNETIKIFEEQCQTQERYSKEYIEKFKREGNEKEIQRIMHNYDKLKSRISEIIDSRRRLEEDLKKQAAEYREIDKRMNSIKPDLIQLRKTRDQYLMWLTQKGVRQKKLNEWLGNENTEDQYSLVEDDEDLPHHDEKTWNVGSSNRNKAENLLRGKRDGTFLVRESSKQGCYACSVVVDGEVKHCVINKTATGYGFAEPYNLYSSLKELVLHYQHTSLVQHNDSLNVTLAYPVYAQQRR

Row | SMILES | IC50 [nM]
1 | Cc1nc(N)nc(N[C@@H](C)c2nc3ccn(C)c3cc2N2CCOCC2)c1C#N [Example 9, (S)-2-Amino-4-methyl-6-((1-(1-methyl-6-morpholino-1H-pyrrolo[3,2-b]pyridin-5-yl)ethyl)amino)pyrimidine-5-carbonitrile] | 0.794
2 | C[C@H](Nc1nc(N)nc2[nH]cnc12)c1nc2ccn(C)c2cc1N1CCOCC1 [Example 27, (S)—N^6-(1-(1-Methyl-6-morpholino-1H-pyrrolo[3,2-b]pyridin-5-yl)ethyl)-9H-purine-2,6-diamine] | 10
3 | C[C@H](Nc1nc(N)nc2[nH]cnc12)c1nc2ccn(C)c2cc1-c1ccnn1C [Example 16, (S)—N^6-(1-(1-Methyl-6-(1-methyl-1H-pyrazol-5-yl)-1H-pyrrolo[3,2-b]pyridin-5-yl)ethyl)-9H-purine-2,6-diamine] | 7.94
4 | C[C@H](Nc1nc(N)ncc1Cl)c1nc2ccn(C)c2cc1-c1ccnn1C [Example 1, (S)-5-Chloro-N^4-(1-(1-methyl-6-(1-methyl-1H-pyrazol-5-yl)-1H-pyrrolo[3,2-b]pyridin-5-yl)ethyl)pyrimidine-2,4-diamine] | 126
5 | C[C@H](Nc1nc(N)nc2[nH]cnc12)c1nc2ccn(C)c2cc1-c1ccccn1 [Example 34, (S)—N^6-(1-(1-Methyl-6-(pyridin-2-yl)-1H-pyrrolo[3,2-b]pyridin-5-yl)ethyl)-9H-purine-2,6-diamine] | 5.01
6 | C[C@H](Nc1nc(N)nc(N)c1C#N)c1nc2ccn(C)c2cc1-c1ccnn1C(F)F [Example 32, (S)-2,4-Diamino-6-((1-(6-(1-(difluoromethyl)-1H-pyrazol-5-yl)-1-methyl-1H-pyrrolo[3,2-b]pyridin-5-yl)ethyl)amino)pyrimidine-5-carbonitrile] | 1.58
7 | C[C@H](Nc1nc(N)nc(N)c1C#N)c1nc2ccn(C)c2cc1C1CCOCC1 [Example 26, (S)-2,4-Diamino-6-((1-(1-methyl-6-(tetrahydro-2H-pyran-4-yl)-1H-pyrrolo[3,2-b]pyridin-5-yl)ethyl)amino)pyrimidine-5-carbonitrile] | < 2
8 | Cc1n[nH]cc1-c1cc2c(ccn2C)nc1[C@H](C)Nc1nc(N)nc(C)c1C#N [Example 19, (S)-2-Amino-4-methyl-6-((1-(1-methyl-6-(3-methyl-1H-pyrazol-4-yl)-1H-pyrrolo[3,2-b]pyridin-5-yl)ethyl)amino)pyrimidine-5-carbonitrile] | 5.01
9 | C[C@H](Nc1nc(O)nc(N)c1C#N)c1nc2ccn(C)c2cc1-c1ccnn1C [Example 11, (S)-4-Amino-2-hydroxy-6-((1-(1-methyl-6-(1-methyl-1H-pyrazol-5-yl)-1H-pyrrolo[3,2-b]pyridin-5-yl)ethyl)amino)pyrimidine-5-carbonitrile] | 1260
10 | Cc1nc(N)nc(N[C@@H](C)c2nc3ccn(C)c3cc2C2CCOCC2)c1C#N [Example 25, (S)-2-Amino-4-methyl-6-((1-(1-methyl-6-(tetrahydro-2H-pyran-4-yl)-1H-pyrrolo[3,2-b]pyridin-5-yl)ethyl)amino)pyrimidine-5-carbonitrile] | < 1.26
11 | C[C@H](Nc1nc(N)ncc1Cl)c1nc2ccn(C)c2cc1N1CCOCC1 [Example 5, (S)-5-Chloro-N^4-(1-(1-methyl-6-morpholino-1H-pyrrolo[3,2-b]pyridin-5-yl)ethyl)pyrimidine-2,4-diamine] | 126

Continued, values first:

Row | IC50 [nM] | SMILES
12 | 200 | C[C@@H](Nc1nc(N)nc(N)c1C#N)c1nc2ccn(C)c2cc1N1CC2(COC2)C1 [Example 46, (R)-2,4-Diamino-6-((1-(1-methyl-6-(2-oxa-6-azaspiro[3.3]heptan-6-yl)-1H-pyrrolo[3,2-b]pyridin-5-yl)ethyl)amino)pyrimidine-5-carbonitrile]
13 | 501 | C[C@H](Nc1nc(N)nc2[nH]ncc12)c1nc2ccn(C)c2cc1-c1ccnn1C [Example 18, (S)—N^4-(1-(1-Methyl-6-(1-methyl-1H-pyrazol-5-yl)-1H-pyrrolo[3,2-b]pyridin-5-yl)ethyl)-1H-pyrazolo[3,4-d]pyrimidine-4,6-diamine]
14 | < 1 | Cc1noc(C)c1-c1cc2c(ccn2C)nc1[C@H](C)Nc1nc(N)nc(N)c1C#N [Example 30, 2,4-Diamino-6-(((1S)-1-(6-(3,5-dimethylisoxazol-4-yl)-1-methyl-1H-pyrrolo[3,2-b]pyridin-5-yl)ethyl)amino)pyrimidine-5-carbonitrile]
15 | < 1.58 | COC1CN(c2cc3c(ccn3C)nc2[C@H](C)Nc2nc(N)nc(N)c2C#N)C1 [Example 41, (S)-2,4-Diamino-6-((1-(6-(3-methoxyazetidin-1-yl)-1-methyl-1H-pyrrolo[3,2-b]pyridin-5-yl)ethyl)amino)pyrimidine-5-carbonitrile]
16 | 63.1 | Cc1nc(N)c(C#N)c(NC(C)c2nc3ccn(C)c3cc2N2CCOCC2)n1 (stereo not shown) [Example 6, 4-Amino-2-methyl-6-((1-(1-methyl-6-morpholino-1H-pyrrolo[3,2-b]pyridin-5-yl)ethyl)amino)pyrimidine-5-carbonitrile]
17 | 1000 | C[C@@H](Nc1nc(N)nc(N)c1C#N)c1nc2ccn(C)c2cc1N1CC(F)(F)C1 [Example 43, (R)-2,4-Diamino-6-((1-(6-(3,3-difluoroazetidin-1-yl)-1-methyl-1H-pyrrolo[3,2-b]pyridin-5-yl)ethyl)amino)pyrimidine-5-carbonitrile]
18 | 5.01 | C[C@H](Nc1nc(N)nc(N)c1C#N)c1nc2ccn(C)c2cc1N1CCC(C)(O)CC1 [Example 21, (S)-2,4-Diamino-6-((1-(6-(4-hydroxy-4-methylpiperidin-1-yl)-1-methyl-1H-pyrrolo[3,2-b]pyridin-5-yl)ethyl)amino)pyrimidine-5-carbonitrile]
19 | 158 | CC(Nc1nc(N)nc(N)c1Cl)c1nc2ccn(C)c2cc1N1CC(F)(F)C1 (stereo not shown) [Example 38, 5-Chloro-N^4-(1-(6-(3,3-difluoroazetidin-1-yl)-1-methyl-1H-pyrrolo[3,2-b]pyridin-5-yl)ethyl)pyrimidine-2,4,6-triamine]
20 | 10 | C[C@H](Nc1nc(N)nc2[nH]cnc12)c1nc2ccn(C)c2cc1-c1ccnn1C(F)F [Example 37, (S)-N^6-(1-(6-(1-(Difluoromethyl)-1H-pyrazol-5-yl)-1-methyl-1H-pyrrolo[3,2-b]pyridin-5-yl)ethyl)-9H-purine-2,6-diamine]
21 | 2 | C[C@H](Nc1nc(N)nc(N)c1C#N)c1nc2ccn(C)c2cc1-c1ccn[nH]1 [Example 13, (S)-2,4-Diamino-6-((1-(1-methyl-6-(1H-pyrazol-5-yl)-1H-pyrrolo[3,2-b]pyridin-5-yl)ethyl)amino)pyrimidine-5-carbonitrile]
22 | 126 | C[C@H](Nc1nc(N)nc(N)c1Cl)c1nc2ccn(C)c2cc1N1CCOCC1 [Example 28, (S)-5-Chloro-N^4-(1-(1-methyl-6-morpholino-1H-pyrrolo[3,2-b]pyridin-5-yl)ethyl)pyrimidine-2,4,6-triamine]
